The numbers were not newly measured in PMC5144109 (Analytical Chemistry, 2016), which cites them from elsewhere.

Series [1] concerns the target T1, aminopeptidase M (APM) (Sus scrofa, UniProt P15145).
T1 sequence (P15145 1-963): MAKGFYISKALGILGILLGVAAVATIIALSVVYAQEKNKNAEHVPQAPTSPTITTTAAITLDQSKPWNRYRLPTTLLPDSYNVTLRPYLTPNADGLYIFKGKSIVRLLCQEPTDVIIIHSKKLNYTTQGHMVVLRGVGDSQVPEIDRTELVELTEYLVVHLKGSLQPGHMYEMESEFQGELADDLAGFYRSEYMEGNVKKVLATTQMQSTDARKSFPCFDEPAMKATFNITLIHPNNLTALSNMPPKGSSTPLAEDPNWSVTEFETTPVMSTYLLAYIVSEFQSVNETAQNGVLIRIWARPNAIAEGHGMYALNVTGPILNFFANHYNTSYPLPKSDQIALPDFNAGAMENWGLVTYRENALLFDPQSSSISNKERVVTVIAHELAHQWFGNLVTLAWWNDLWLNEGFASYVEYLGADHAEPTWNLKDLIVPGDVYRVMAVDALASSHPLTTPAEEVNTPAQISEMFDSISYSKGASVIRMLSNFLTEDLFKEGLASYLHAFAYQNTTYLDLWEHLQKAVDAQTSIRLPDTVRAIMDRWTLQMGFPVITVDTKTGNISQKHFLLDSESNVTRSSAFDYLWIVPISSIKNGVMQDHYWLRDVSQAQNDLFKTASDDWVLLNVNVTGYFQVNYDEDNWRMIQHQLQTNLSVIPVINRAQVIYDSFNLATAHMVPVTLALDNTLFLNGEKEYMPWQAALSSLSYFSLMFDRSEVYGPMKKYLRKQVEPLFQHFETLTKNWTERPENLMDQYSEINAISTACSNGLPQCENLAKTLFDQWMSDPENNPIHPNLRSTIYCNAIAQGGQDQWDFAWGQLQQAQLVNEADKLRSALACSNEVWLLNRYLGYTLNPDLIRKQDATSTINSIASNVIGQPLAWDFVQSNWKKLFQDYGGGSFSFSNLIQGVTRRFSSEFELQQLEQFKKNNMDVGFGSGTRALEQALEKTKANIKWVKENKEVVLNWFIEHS
Particulars: positive and negative control of the digestion experiments.

The test system of series [2] is opioid receptors. The following applies: in mammals.

Entries after “also recorded” stand apart in the source; their conditions may differ. Square brackets hold non-standard residues; d marks the D form. Ends that are not written are not given here.

In the case of Asn-[dW]-Phe-NH2 [NdWFamide], the “digestion by APM (control peptides)” value in series [1] is “is not digested by APM; also recorded: known to resist degradation by APM”.

“Human angiotensin I acetate salt hydrate”: the “digestion by APM (control peptides)” value in series [1] is recorded as “is digested by APM”.

On to dermorphin, for which the “potency compared with morphine” value in series [2] is “higher potency than morphine”.
